Measurements taken from US20020098520A1, “Cell tests and diagnostic index for alzheimer's disease” (priority 1993, published 2002).

Tests used:
[1] = test system: human skin fibroblasts (AD, AC, YC); assay type: cell-based
166 pS K^+ channel = assay: Patch-clamp, cell-free patches: channel sensitivity to blockers; assay type: cell-based, human; details: 50 mM Ba^2+, inside-out patches, n=4
Description: (§1) Patch-clamp experiments were performed at room temperature (21-23° C.), following standard procedures set forth in Sakmann, B. and Neher, E. (1983) Single Channels Recordings (Plenum New York) and Kukuljan, M., et al. (1991) J. Membrane Biol. 119:187. Before recordings, […] culture medium was replaced with the following solution: 150 mM NaCl, 5 mM KCl, 2 mM CaCl2, 1 MM MgCl2, 10 mM HEPES […] pH=7.4. Pipettes were made from Blue Tip capillary tubes (I.D. 1.1-1.2 mm) using a BB-CH Mecanex puller, and then filled with a high potassium solution of 140 mM KCl, 2 mM CaCl2, 1 mM MgCl2, 10 mM HEPES (NaOH), pH=7.4. Pipette resistances were approximately 6 MΩ. Records were obtained using an Axopatch-1C amplifier (dc-10 kHz), stored on tape (Toshiba PCM-video recorder), and later transferred to a personal computer using an Axolab interface. Only recordings lasting for at least 3 minutes were considered for final analysis. The pClamp suite of programs was used for single-channel data acquisition and analysis. Amplifier, interface and software were obtained from Axon Instruments (Foster City, Calif.).

113 pS K^+ channel = assay: as above; assay type: cell-based, human; details: 50 mM Ba^2+, inside-out patches, n=4
Description: as §1

| SMILES | response to high potassium when agent is added before stimulation [1] | also measured |
| --- | --- | --- |
| [Cl][La]([Cl])[Cl] [LaCl3] | No responses were observed |  |
| [Cl-].[Cl-].[Co+2] [CoCl2] | No responses were observed |  |
| [Cl-].[K+] [KCl, potassium chloride] |  | return of [Ca^2+]i to basal levels ([1]; 50 mM KCl): 100 s; [Ca^2+]i elevation ([1]; 50 mM KCl, all three groups (AD, AC, YC)): at least 100% |
| [Ba+2] [Ba^2+] |  | sensitivity of the 166 pS channel to Ba^2+ (166 pS K^+ channel): sensitive; sensitivity of the 113 pS channel to Ba^2+ (113 pS K^+ channel): sensitive |
| [Cl][Cd][Cl] [CdCl2] | No responses were observed |  |
| [Cl][Ni][Cl] [NiCl2] | No responses were observed |  |
| O=C(O)CN(CCOCCOCCN(CC(=O)O)CC(=O)O)CC(=O)O [EGTA] | No responses were observed |  |
